Data published in patent US8664276B2, “Stilbene analogs and methods of treating cancer” (University of Kentucky Research Foundation, priority 2011, dated 2014).

Assays:
MAT2A = MAT2A (Homo sapiens, UniProt P31153); assay: Streptavidin bead pull-down binding assay, GST-MAT2A; design: GST (N); made in house; conditions: recombinant protein from E. coli
Experimental: (§1) MAT2A and MAT2B were cloned into pGEX6p3 vector. The constructs were transfected into E. coli BL21. The GST-fusion proteins were induced by IPTG and purified by glutathione beads as described previously (See Liu, beta-Trcp couples beta-catenin phosphorylation-degradation and regulates Xenopus axis formation. Proc Natl Acad Sci USA 1999, 96, 6273-8). For the binding assay, purified proteins were incubated with streptavidin beads and biotinylated FlDAS 13 described above. Eluted proteins were analyzed by western blot with antibodies against GST, MAT2A or MAT2B.
(§2) Since MAT2A and MAT2B bind each other and form a complex, to determine which subunit directly interacts with FIDAS reagents, recombinant MAT2A and MAT2B were purified and tested for interaction with FIDAS. Briefly, GST-MAT2A and GST-MAT2B fusion proteins were expressed and purified from E. coli. These proteins were incubated with streptavidin beads with or without biotinylated derivative 13 (FIG. 9A). The binding proteins were eluted by 2.5 mM D-biotin and analyzed by Western blot with an anti-GST-Ab.

MAT2B = target: T1, MAT2B (Homo sapiens, UniProt Q9NZL9); assay: Streptavidin bead pull-down binding assay, GST-MAT2B; conditions: recombinant protein from E. coli
T1 construct: made in house; host or cells: E. coli BL21
T1 sequence (Q9NZL9 1-334): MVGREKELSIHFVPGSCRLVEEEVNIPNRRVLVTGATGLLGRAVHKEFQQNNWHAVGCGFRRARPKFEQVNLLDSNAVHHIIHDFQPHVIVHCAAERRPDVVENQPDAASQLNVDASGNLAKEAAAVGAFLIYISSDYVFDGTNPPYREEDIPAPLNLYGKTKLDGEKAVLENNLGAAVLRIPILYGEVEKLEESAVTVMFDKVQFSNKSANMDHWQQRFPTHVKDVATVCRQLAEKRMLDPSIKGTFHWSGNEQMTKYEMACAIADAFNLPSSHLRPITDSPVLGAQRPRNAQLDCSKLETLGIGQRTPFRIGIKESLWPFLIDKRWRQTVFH
Experimental: as §1, §2

MAT2A-K265L = target: T2, MAT2A-K265L (Homo sapiens, UniProt P31153, K265L); assay: In vitro binding assay, mutant MAT2A (K265L); conditions: lysine 265 mutated to leucine
T2 construct: made in house
T2 sequence (P31153 whole entry K265L): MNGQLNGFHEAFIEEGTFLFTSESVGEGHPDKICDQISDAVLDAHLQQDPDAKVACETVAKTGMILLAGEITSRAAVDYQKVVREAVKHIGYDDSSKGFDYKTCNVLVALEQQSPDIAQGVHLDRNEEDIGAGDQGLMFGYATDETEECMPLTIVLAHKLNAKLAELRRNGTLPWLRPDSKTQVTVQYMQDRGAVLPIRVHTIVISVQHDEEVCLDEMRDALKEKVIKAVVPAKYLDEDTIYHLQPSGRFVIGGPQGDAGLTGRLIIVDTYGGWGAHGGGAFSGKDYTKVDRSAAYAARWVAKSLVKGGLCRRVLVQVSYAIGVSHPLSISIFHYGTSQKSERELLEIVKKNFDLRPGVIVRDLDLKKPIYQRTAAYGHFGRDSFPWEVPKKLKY
Text: To test if the halogenated stilbene analogs of the present disclosure also bind MAT1A, a His-tagged MAT1A was cloned in and purified from E. coli. […] According to published MAT structures, several key residues are involved in substrate binding and catalysis. Among these key residues, lysine 265 is conserved between MAT1A and MAT2A and among different species. […] Taken together, the FlDAS reagents are specific inhibitors of MAT2A, and are promising drug candidates for multiple cancers as well as metabolic diseases.

Sequence of MAT2A (P31153 whole entry, the tested form may be a part): as the sequence (P31153 whole entry K265L) above, with L265K counted along it

binding to MAT2A (MAT2A): directly binds
binding to MAT2B (MAT2B): indirectly through MAT2A
binding to mutant MAT2A (K265L) (MAT2A-K265L): significantly decreased
Structure (SMILES): CN(CC(=O)NCCOCCOCCNC(=O)CCCCC1SCC2NC(=O)NC21)c1ccc(C=Cc2c(F)cccc2F)cc1 (stereo not drawn) [compound 13, N-(2-(4-(2,6-Difluorostyryl)phenyl)-4-oxo-8,11-dioxa-2,5-diazamidecan-13-yl)-5-(2-oxohexahydro-1H-thieno[3,4-d]imidazol-4-yl)pentanamide]
